Test results from patent US20240240224A1, “FLUORESCENT D-TYPE AMINO ACID METABOLISM MARKER-BASED METHOD FOR DETECTING ANTIBACTERIAL DRUG SENSITIVITY TEST” (priority 2020, published 2024).
Values after ≈ are worked out from the molar mass of the structure shown.

Experiments:
S. aureus ST5 [1] = assay: Vitek 2 drug sensitivity test; type: cell-based, Staphylococcus aureus; as to Sensibility: key: S: Drug sensitive; R: Drug resistance
S. aureus ST59 [2] = assay: Vitek 2 drug sensitivity test; type: cell-based, Staphylococcus aureus; as to Sensibility: key: S: Drug sensitive; R: Drug resistance
S. aureus ST398 [3] = assay: FDAA metabolic labeling susceptibility test (Cy5-DAA probe, flow cytometry); type: cell-based; settings: Staphylococcus aureus; S. aureus ST398; Cy5-DAA probe, 2 hours; read-out: MIC, FDAA
Procedure: (§1) Take the colony to be tested that has been cultured overnight on the plate and fully mix it in normal saline to make a uniform bacterial solution. Dilute it into Cation-Adjusted Mueller Hinton Broth (CAMHB) culture medium to make a bacterial solution with OD600=0.05. • 2. Add 45 μl antibiotic solutions of different concentrations to 96-well plates (see Table 1 for antibiotic concentration gradient settings). • 3. Add 50 μl of the bacterial solution prepared in step 1 to the 96-well plate and mix well. • 4. Add 5 μl of 10 mM Cy5-DAA probe (final concentration 0.15 mM, see FIG. 1 for its structure) into each well, mix well, and cultivate in dark for 2 hours. • 5. Add 200 μl After PBS solution is diluted, the fluorescence intensity of each sample is detected by flow cytometry. The flow detection results are shown in FIG. 4-5, showing the curve of the change of antibiotic concentration gradient and fluorescence intensity. The MIC (minimum inhibitory concentration) can be obtained by referring to this curve.

S. aureus ST5 [4] = assay: as above; type: cell-based; settings: Staphylococcus aureus; S. aureus ST5; Cy5-DAA probe, 2 hours; read-out: MIC, FDAA
Procedure: as §1

S. aureus ST59 [5] = assay: as above; type: cell-based; settings: Staphylococcus aureus; S. aureus ST59; Cy5-DAA probe, 2 hours; read-out: MIC, FDAA
Procedure: as §1

S. aureus ST398 [6] = assay: Vitek 2 drug sensitivity test; type: cell-based, Staphylococcus aureus; as to Sensibility: key: S: Drug sensitive; R: Drug resistance
A. baumannii Ab19 [7] = assay: BMD susceptibility test; type: cell-based, Acinetobacter baumannii; settings: unit assumed
E.coli 1113 [8] = assay: FDAA metabolic labeling susceptibility test (Cy5-DAA probe, flow cytometry); type: cell-based, Escherichia coli; settings: Escherichia coli, 1113, 2 h, read-out: MIC, FDAA
Procedure: (§2) The specific experimental steps are as follows: • 1. Take the colony to be tested that has been cultured overnight on the plate and fully mix it in normal saline to make a uniform bacterial solution. Dilute it into CAMHB medium to make a bacterial solution with OD600=0.05. • 2. Add 45 μl antibiotic solutions to be tested of different concentrations to 96-well plates (see Table 3 for antibiotic concentration gradient settings). • 3. Add 50 μl of bacterial solution prepared in Step 1 to the 96-well plate and mix well. • 4.5 μl of 10 mM Cy5-DAA probe was added to each well (final concentration was 0.15 mM, and its structure was shown in FIG. 1). After mixing, the probe was incubated for 2 hours in the dark. • 5. After dilution with 200 μl PBS solution, the fluorescence intensity of each sample was detected by flow cytometry. The flow detection results are shown in the attached FIG. 4-5, showing the curve of antibiotic concentration gradient and fluorescence intensity, and the MIC (minimum inhibitory concentration) is obtained by referring to this curve.

E.coli 1146 [9] = assay: as above; type: cell-based, Escherichia coli; settings: Escherichia coli, 1146, 2 h, read-out: MIC, FDAA
Procedure: as §2

E. coli Ec11 [10] = assay: BMD susceptibility test; type: cell-based, Escherichia coli; settings: unit assumed
E.coli 1113 [11] = assay: Vitek 2 drug sensitivity test; type: cell-based, Escherichia coli; as to Sensibility: key: S: Drug sensitive; R: Drug resistance
A. baumannii Ab16 [12] = assay: BMD susceptibility test; type: cell-based, Acinetobacter baumannii; settings: unit assumed
[13] = test system: bacteria contained in alveolar lavage fluid; assay: FDAA metabolic labeling susceptibility test of alveolar lavage fluid (Cy5-DAA probe); type: cell-based; settings: alveolar lavage fluid of patients with hospital acquired pneumonia, 2 hours
Procedure: (§3) With reference to the flow chart of the rapid detection method of antimicrobial susceptibility test based on FDAA metabolic markers shown in FIG. 3, FDAA is used for the detection of antimicrobial susceptibility test of alveolar lavage fluid. The specific experimental steps are as follows: • 1. Mix bronchoalveolar lavage fluid (BALF, 10 ml) of patients with hospital acquired pneumonia with cation regulated broth medium (CAMHB, 10 ml) of twice the concentration to prepare the bacterial fluid to be tested. • 2. Add 45 μl antibiotic solutions of different concentrations to the 96-well plate separately (see Table 1 for antibiotic concentration gradient settings). • 3. Add 50 μl of the bacterial solution prepared in step 1 to the 96-well plate and mix well. • 4. Add 5 μl of 10 mM Cy5-DAA probe (final concentration 0.15 mM, see FIG. 1 for its structure) into each well, mix well, and then cultivate in dark for 2 hours. • 5. Add 200 μl PBS solution for dilution, and then use flow cytometry to detect the fluorescence intensity of each sample.

E.coli 1146 [14] = assay: Vitek 2 drug sensitivity test; type: cell-based, Escherichia coli; as to Sensibility: key: S: Drug sensitive; R: Drug resistance
Ec ATCC 25922 [15] = assay: FaAST (FDAA metabolic labeling); type: cell-based, Escherichia coli; settings: unit assumed
Procedure: as §2
(§4) Antibiotic resistant strains are shown in bold in the table below.

E. coli Ec11 [16] = assay: FaAST (FDAA metabolic labeling); type: cell-based, Escherichia coli; settings: unit assumed
Procedure: as §2, §4

[17] = test system: alveolar lavage fluid sample 0226, K. pneumoniae; assay: FaAST (FDAA) susceptibility test of patient alveolar lavage fluid; type: cell-based, Klebsiella pneumoniae; settings: unit assumed
Procedure: as §3
(§5) The results of antimicrobial susceptibility test of alveolar lavage fluid of seven patients using FDAA and BMD methods are shown in the following table. The drug-resistant bacteria are shown in bold.

[18] = test system: alveolar lavage fluid sample 0203, K. pneumoniae; assay: as above; type: cell-based, Klebsiella pneumoniae; settings: unit assumed
Procedure: as §3, §5

A. baumannii Ab16 [19] = assay: FaAST (FDAA metabolic labeling); type: cell-based, Acinetobacter baumannii; settings: unit assumed
Procedure: as §2, with “cytometry.” for “cytometry. The flow detection results are shown in the attached FIG. 4-5, showing the curve of antibiotic concentration gradient and fluorescence intensity, and the MIC (minimum inhibitory concentration) is obtained by referring to this curve.”

Ec ATCC 25922 [20] = settings: cited from earlier work
A. baumannii Ab19 [21] = assay: FaAST (FDAA metabolic labeling); type: cell-based, Acinetobacter baumannii; settings: unit assumed
Procedure: as §2, §4

[22] = test system: bacteria contained in alveolar lavage fluid; assay: Vitek 2 drug sensitivity test of alveolar lavage fluid; type: cell-based; as to Sensibility: key: S: Drug sensitive; R: Drug resistance
[23] = test system: alveolar lavage fluid sample 0219, A. baumannii; assay: FaAST (FDAA) susceptibility test of patient alveolar lavage fluid; type: cell-based, Acinetobacter baumannii; settings: unit assumed
Procedure: as §3, §5

[24] = test system: alveolar lavage fluid sample 0206, A. baumannii; assay: as above; type: cell-based, Acinetobacter baumannii; settings: unit assumed
Procedure: as §3, §5

[25] = test system: alveolar lavage fluid sample 0130, A. baumannii; assay: as above; type: cell-based, Acinetobacter baumannii; settings: unit assumed
Procedure: as §3, §5

[26] = test system: alveolar lavage fluid sample 0204, A. baumannii; assay: as above; type: cell-based, Acinetobacter baumannii; settings: unit assumed
Procedure: as §3, §5

K. pneumoniae Kp9 [27] = assay: BMD susceptibility test; type: cell-based, Klebsiella pneumoniae; settings: unit assumed
[28] = test system: alveolar lavage fluid sample 0226, K. pneumoniae; assay: BMD susceptibility test of patient alveolar lavage fluid; type: cell-based, Klebsiella pneumoniae; settings: unit assumed
Excerpt: as §5

[29] = test system: alveolar lavage fluid sample 0203, K. pneumoniae; assay: as above; type: cell-based, Klebsiella pneumoniae; settings: unit assumed
Excerpt: as §5

Ec ATCC 25922 [30] = assay: BMD susceptibility test; type: cell-based, Escherichia coli; settings: unit assumed
K. pneumoniae Kp6 [31] = assay: BMD susceptibility test; type: cell-based, Klebsiella pneumoniae; settings: unit assumed
E. coli Ec13 [32] = assay: BMD susceptibility test; type: cell-based, Escherichia coli; settings: unit assumed
[33] = test system: alveolar lavage fluid sample 0204, A. baumannii; assay: BMD susceptibility test of patient alveolar lavage fluid; type: cell-based, Acinetobacter baumannii; settings: unit assumed
E. coli Ec13 [34] = assay: FaAST (FDAA metabolic labeling); type: cell-based, Escherichia coli; settings: unit assumed
Procedure: as §2, with “cytometry.” for “cytometry. The flow detection results are shown in the attached FIG. 4-5, showing the curve of antibiotic concentration gradient and fluorescence intensity, and the MIC (minimum inhibitory concentration) is obtained by referring to this curve.”

K. pneumoniae Kp6 [35] = assay: FaAST (FDAA metabolic labeling); type: cell-based, Klebsiella pneumoniae; settings: unit assumed
Procedure: as §2, with “cytometry.” for “cytometry. The flow detection results are shown in the attached FIG. 4-5, showing the curve of antibiotic concentration gradient and fluorescence intensity, and the MIC (minimum inhibitory concentration) is obtained by referring to this curve.”

K. pneumoniae Kp9 [36] = assay: FaAST (FDAA metabolic labeling); type: cell-based, Klebsiella pneumoniae; settings: unit assumed
Procedure: as §2, with “cytometry.” for “cytometry. The flow detection results are shown in the attached FIG. 4-5, showing the curve of antibiotic concentration gradient and fluorescence intensity, and the MIC (minimum inhibitory concentration) is obtained by referring to this curve.”

[37] = test system: alveolar lavage fluid sample 0219, A. baumannii; assay: BMD susceptibility test of patient alveolar lavage fluid; type: cell-based, Acinetobacter baumannii; settings: unit assumed
Excerpt: as §5

[38] = test system: alveolar lavage fluid sample 0206, A. baumannii; assay: as above; type: cell-based, Acinetobacter baumannii; settings: unit assumed
Excerpt: as §5

[39] = test system: alveolar lavage fluid sample 0130, A. baumannii; assay: as above; type: cell-based, Acinetobacter baumannii; settings: unit assumed
Excerpt: as §5

Cc1onc(-c2ccccc2)c1C(=O)N[C@@H]1C(=O)N2[C@@H]1SC(C)(C)[C@@H]2C(=O)O [OX, oxacillin]
Sensibility (S. aureus ST5 [1]): R | MIC (S. aureus ST5 [1]; Staphylococcus aureus): 256 µg/mL (≈ 638 µM) | Sensibility (S. aureus ST59 [2]): R | MIC (S. aureus ST59 [2]; Staphylococcus aureus): 16 µg/mL (≈ 39.9 µM) | MIC (S. aureus ST398 [3]): 0.25 µg/mL (≈ 0.623 µM) | MIC (S. aureus ST5 [4]): ≥ 1020 µg/mL | MIC (S. aureus ST59 [5]): 32 µg/mL (≈ 79.7 µM) | Sensibility (S. aureus ST398 [6]): S | MIC (S. aureus ST398 [6]; Staphylococcus aureus): ≤ 0.25 µg/mL

CN(C)c1cc(NC(=O)CNC(C)(C)C)c(O)c2c1C[C@H]1C[C@H]3[C@H](N(C)C)C(O)=C(C(N)=O)C(=O)[C@@]3(O)C(O)=C1C2=O [Tigecycline, tigecycline]
BMD (MIC) (A. baumannii Ab19 [7]): ≤ 0.25 µg/mL | MIC (E.coli 1113 [8]): 1 µg/mL (≈ 1.71 µM) | MIC (E.coli 1146 [9]): 0.25 µg/mL (≈ 0.427 µM) | BMD (MIC) (E. coli Ec11 [10]): ≤ 0.25 µg/mL | MIC, Vitek 2 (E.coli 1113 [11]): < 1 µg/mL | Sensibility (E.coli 1113 [11]): S | BMD (MIC) (A. baumannii Ab16 [12]): ≤ 0.25 µg/mL | MIC, FDAA [13]: 4 µg/mL (≈ 6.83 µM) | Sensibility (E.coli 1146 [14]): S | MIC (E.coli 1146 [14]; Escherichia coli): ≤ 0.25 µg/mL | FaAST (MIC) (Ec ATCC 25922 [15]): ≤ 0.25 µg/mL | FaAST (MIC) (E. coli Ec11 [16]): ≤ 0.25 µg/mL | FaAST (MIC) [17]: 0.5 µg/mL | FaAST (MIC) [18]: 0.125 µg/mL | FaAST (MIC) (A. baumannii Ab16 [19]): ≤ 0.25 µg/mL | CLSI QC range (Ec ATCC 25922 [20]): 0.03-0.25 | FaAST (MIC) (A. baumannii Ab19 [21]): 0.5 µg/mL | MIC [22]: 2 µg/mL (≈ 3.41 µM) | Sensibility [22]: S | FaAST (MIC) [23]: 64 µg/mL | FaAST (MIC) [24]: 8 µg/mL | FaAST (MIC) [25]: 2 µg/mL | FaAST (MIC) [26]: 0.5 µg/mL | BMD (MIC) (K. pneumoniae Kp9 [27]): 0.5 µg/mL | BMD (MIC) [28]: 1 µg/mL | BMD (MIC) [29]: 1 µg/mL | BMD (MIC) (Ec ATCC 25922 [30]): ≤ 0.25 µg/mL | BMD (MIC) (K. pneumoniae Kp6 [31]): ≤ 0.25 µg/mL | BMD (MIC) (E. coli Ec13 [32]): ≤ 0.25 µg/mL | BMD (MIC) [33]: 0.5 µg/mL | FaAST (MIC) (E. coli Ec13 [34]): ≤ 0.25 µg/mL | FaAST (MIC) (K. pneumoniae Kp6 [35]): ≤ 0.25 µg/mL | FaAST (MIC) (K. pneumoniae Kp9 [36]): 0.25 µg/mL | BMD (MIC) [37]: 1 µg/mL | BMD (MIC) [38]: 1 µg/mL | BMD (MIC) [39]: 2 µg/mL
